Measured values as given in patent publication US7332489B2, “Methods and compositions of novel triazine compounds” (Reddy US Therapeutics, Inc., priority 2003, dated 2008).
Read-outs that look alike come from different tables or passages of the source.

How the values were obtained:
TNF-α induced IL-6 = assay: TNF-α-induced IL-6 production determined by IL-6 ELISA; type: cell-based; conditions: for activity at 10 µM: Homo sapiens, 24 h; for % IL6 production compare to TNF stimulation of IL6 (100%), @ 5 uM: 5 uM compound, TNF stimulation = 100%
In short: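 Human aortic endothelial cells grown to ≥90% confluence, then treated with compounds and stimuli in serum-free medium with 0.2% albumin. Secreted IL-6 in collected media measured by sandwich ELISA (2 ug/ml capture, 200 ng/ml biotinylated detection antibody, streptavidin-HRP), read at 450 nm.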

cells = assay: Cytotoxicity/Lactate Dehydrogenase assay; type: cell-based; conditions: toxic or cause cell death; concentrations (uM) given
Protocol: An appropriate number of cells are plated in four 96-well plates, one plate for “day 0” and three plates for days 1-3. Cells are treated with at least one compound of the present invention in varying concentrations with and without the apoptosis inducer cisplatin (2 μM) (“+cis” or “-cis”). Unteated cells are also assayed with and without cisplatin. After transfection, the plates are incubated at 37° C. overnight.
An appropriate number of cells are plated in four 96-well plates, one plate for “day 0” and three plates for days 1-3. Cells are treated with at least one compound of the present invention in varying concentrations. The negative control cells have normal media conditions, a duplicate set of wells is treated with the composition in which the compound is provided, but there is no added compound and the positive control cells are treated with the apoptosis inducer cisplatin (2 μM). All of the cells are transfected with a vector having a promoter that is responsive to apoptosis conditions. When apoptosis occurs, the promoter is turned on and the lactic dehydrogenase gene is activated and the enzyme protein is made and active. Activity is easily detected with a color change. After transfection, the plates are incubated at 37° C. overnight.
About 8 mls of warmed alpha MEM LDH lysis buffer (2% Triton X100) and about 8 mls of culture media (1/2 dilution) are combined. Two 96-well v-bottom plates are prepared, one labeled “lysis” and one labeled “supernatant.” To lyse the cells, about 200 μl Alpha MEM lysis buffer (diluted 1/2) is added to one test plate from which the supernatant has been removed and added to the plate labeled supernatant. After mixing, about 200 μl of lysed cells are transferred to the lysis plate. Both the lysis and supernatant plates are centrifuged at about 1600 rpm for about 10 min. After centrifugation, about 100 μl of both the supernatant or lysate is transferred to corresponding 96-well flat-bottomed plates.
The assay for cytotoxicity uses the Cytotoxicity Detection Kit (LDH) from Roche Diagnostics Corp. (Indianapolis, Ind.). Using the directions provided, the dye solution is mixed and added each well of the lysate and supernatant plate and incubated for up to 20-25 min at 15-25° C. in the dark.

endothelial cells = assay: Toxicity to endothelial cells when AGE stimulated; type: cell-based; conditions: endothelial cells, AGE stimulated
Protocol: In general, to determine if there is cytotoxic activity associated with a compound, cells of a particular type, in a growing stage or a quiescient stage, are treated with the compound of interest. Various parameters of cell death or cessation are used to measure the effects of the compound. For example, the amount of nucleic acid or protein synthesis can be measured or visual observation of the state of the cells, such as release from the substrate, can be used to measure the state of the cells.
All treatments, compound-added and controls were carried out in serum free media containing 0.2% albumin. Media from all conditions were collected and used for IL-6 ELISA.

[1] = Table 5, second part, column 1, class = % of control IL6 production, read-out: Inhibition of TNF-induced IL6, production
[2] = read-out: Inhibition of TNF-induced IL6 production
[3] = read-out: % IL6 production compare to TNF stimulation of IL6 (100%), Compds tested @ 10 uM HAEC, IL6

COc1ccc(Nc2nc(NN3CCCCCC3)nc(N(C)C3CCNCC3)n2)cc1Cl
melting point: 81 °C

COc1ccc(Nc2nc(NC3CCCCCC3)nc(N3CCSCC3)n2)cc1Cl
melting point: 78 to 80 °C

CCN1CCCC1CNc1nc(Nc2cnc3ccccc3c2)nc(NC2CCCCCC2)n1 (stereo not drawn) [Compound 3, N^2-cycloheptyl-N^4-[(1-ethyl-2-pyrrolidinyl)methyl]-N^6-(3-quinolinyl)-1,3,5-triazine-2,4,6-triamine]
activity at 10 µM (TNF-α induced IL-6; [1]): 0 to 25%
Toxicity (cells): toxic

CCN1CCCC1CNc1nc(Nc2ccc(OC)c(F)c2)nc(NC2CCCCCCC2)n1 (stereo not drawn) [Compound 54, N^2-cyclooctyl-N^4-[(1-ethyl-2-pyrrolidinyl)methyl]-N^6-(3-fluoro-4-methoxyphenyl)-1,3,5-triazine-2,4,6-triamine]
Toxicity (cells): toxic

CCN1CCCC1CNc1nc(Nc2ccc(OC)c(F)c2)nc(N2CCCC3CCCCC32)n1 (stereo not drawn) [Compound 59, N^2-[(1-ethyl-2-pyrrolidinyl)methyl]-N^4-(3-fluoro-4-methoxyphenyl)-N^6-octahydro-1(2H)-quinolinyl-1,3,5-triazine-2,4-diamine]
Toxicity (cells): toxic

COc1ccc(Nc2nc(NCCN(C)C)nc(NC3CCCCCC3)n2)cc1F [Compound 93, N^2-cycloheptyl-N^4-[2-(dimethylamino)ethyl]-N^6-(3-fluoro-4-methoxyphenyl)-1,3,5-triazine-2,4,6-triamine]
activity at 10 µM (TNF-α induced IL-6; Table 5, first part, class = % of control IL6 production, read-out: Inhibition of TNF-induced IL6 production): 0 to 25%
activity at 10 µM (TNF-α induced IL-6; [1]): 0 to 25%
Toxicity (cells): toxic

COc1ccc(Nc2nc(NC(C)C)nc(N(C)C3CCNCC3)n2)cc1Cl [Compound 107, N^2-(3-chloro-4-methoxy-phenyl)-N^4-isopropyl-N^6-methyl-N^6-piperidin-4-yl-1,3,5-triazine-2,4,6-triamine]
melting point: 129 °C
% IL6 production compare to TNF stimulation of IL6 (100%), @ 5 uM (TNF-α induced IL-6; HAEC): 60 @ 5 uM %
activity at 10 µM (TNF-α induced IL-6; [2]): 50 to 75%

COc1ccc(Nc2nc(NCCCCCO)nc(N(C)C3CCNCC3)n2)cc1Cl [Compound 109, 5-[4-(3-chloro-4-methoxy-phenylamino)-6-(methyl-piperidin-4-yl-amino)-1,3,5-triazin-2-ylamino]-pentan-1-ol]
melting point: 101 °C
activity at 10 µM (TNF-α induced IL-6; [3]): 40%
activity at 10 µM (TNF-α induced IL-6; [2]): 25 to 50%

CCCCN(CCC)c1nc(Nc2ccc(OC)c(Cl)c2)nc(N(C)C2CCN(C)CC2)n1 [Compound 111, N-Butyl-N′-(3-chloro-4-methoxy-phenyl)-N″-methyl-N″-(1-methyl-piperidin-4-yl)-N-propyl-[1,3,5]triazine-2,4,6-triamine]
% IL6 production compare to TNF stimulation of IL6 (100%), @ 5 uM (TNF-α induced IL-6; HAEC): 46%
activity at 10 µM (TNF-α induced IL-6; [3]): > 90%
activity at 10 µM (TNF-α induced IL-6; [2]): 75 to 100%
Toxicity (cells): Toxic by eye at 50and 10 uM noblunt/round justdeath

COc1ccc(Nc2nc(Cl)nc(OCC3CCCCC3)n2)cc1F [Compound 114, (4-Chloro-6-cyclohexylmethoxy-[1,3,5]triazin-2-yl)-(3-fluoro-4-methoxy-phenyl)-amine]
melting point: 98 °C

COc1ccc(Nc2nc(Nc3ccc(OC)c(F)c3)nc(OCC3CCCCC3)n2)cc1F [Compound 115, 6-Cyclohexylmethoxy-N,N′-bis-(3-fluoro-4-methoxy-phenyl)-1,3,5-triazine-2,4-diamine]
melting point: 181 °C

CCN1CCCC1CNc1nc(Nc2ccc(OC)c(F)c2)nc(OCC2CCCCC2)n1 (stereo not drawn) [Compound 116, 6-Cyclohexylmethoxy-N-(1-ethyl-pyrrolidin-2-ylmethyl)-N′-(3-fluoro-4-methoxy-phenyl)-[1,3,5]triazine-2,4-diamine]
melting point: 59 °C

COc1ccc(Nc2nc(Cl)nc(OCC3CCCCC3)n2)cc1Cl [Compound 117, (4-Chloro-6-cyclohexylmethoxy-[1,3,5]triazin-2-yl)-(3-chloro-4-methoxy-phenyl)-amine]
melting point: 114 °C

COc1ccc(Nc2nc(Nc3ccc(OC)c(Cl)c3)nc(OCC3CCCCC3)n2)cc1Cl [Compound 118, N,N′-Bis-(3-chloro-4-methoxy-phenyl)-6-cyclohexylmethoxy-1,3,5-triazine-2,4-diamine]
melting point: 188 °C

COc1ccc(Nc2nc(OCC3CCCCC3)nc(N(C)C3CCN(C)CC3)n2)cc1Cl [Compound 119, N-(3-Chloro-4-methoxy-phenyl)-6-cyclohexylmethoxy-N′-methyl-N′-(1-methyl-piperidin-4-yl)-[1,3,5]triazine-2,4-diamine]
Toxicity (cells): toxic

COc1ccc(Nc2nc(Nc3ccc(OC)c(Cl)c3)nc(NC3CCCCCC3)n2)cc1Cl [Compound 122, N,N′-Bis-(3-chloro-4-methoxy-phenyl)-N″-cycloheptyl-[1,3,5]triazine-2,4,6-triamine]
melting point: 183 °C

COc1ccc(Nc2nc(Cl)nc(Cl)n2)cc1F [Compound 124, (4,6-Dichloro-[1,3,5]triazin-2-yl)-(3-fluoro-4-methoxy-phenyl)-amine]
melting point: 134 °C

COc1ccc(Nc2nc(Cl)nc(NCC3CCCCC3)n2)cc1F [Compound 125, 6-Chloro-N-cyclohexylmethyl-N′-(3-fluoro-4-methoxy-phenyl)-[1,3,5]triazine-2,4-diamine]
melting point: 156 °C

CCN1CCCC1CNc1nc(NCC2CCCCC2)nc(Nc2ccc(OC)c(F)c2)n1 (stereo not drawn) [Compound 126, N-Cyclohexylmethyl-N′-(1-ethyl-pyrrolidin-2-ylmethyl)-N″-(3-fluoro-4-methoxy-phenyl)-[1,3,5]triazine-2,4,6-triamine]
melting point: 72 °C

COc1ccc(Nc2nc(NC3CCCCCC3)nc(NC3CCN(Cc4ccccc4)CC3)n2)cc1Cl [Compound 134, N-(1-Benzyl-piperidin-4-yl)-N′-(3-chloro-4-methoxy-phenyl)-N″-cycloheptyl-[1,3,5]triazine-2,4,6-dianmine]
% IL6 production compare to TNF stimulation of IL6 (100%), HAEC, IL6, @ 5 uM (TNF-α induced IL-6; HAEC, TNF stimulated, compound 5 uM (bracketed value)): 55%
% IL6 production compare to TNF stimulation of IL6 (100%), Compds tested @ 10 uM HAEC, IL6 (TNF-α induced IL-6; HAEC, TNF stimulated, compound 10 uM): total cell death
Toxic (AGE-treated) (endothelial cells): toxic

CCN1CCCC1CNc1nc(Nc2ccc(OC)c(Cl)c2)nc(NC2CCCCCC2)n1 (stereo not drawn) [Compound 136, N^2-(3-chloro-4-methoxy-phenyl)-N^4-cycloheptyl-N^6-(1-ethyl-pyrrolidin-2-ylmethyl)-1,3,5-triazine-2,4,6-triamine]
Toxicity (cells): Nothing but celldebris at 3 uM verytoxic

COc1ccc(Nc2nc(NC3CCCCCC3)nc(N(C)C3CCNCC3)n2)cc1Cl [Compound 146, N^2-(3-chloro-4-methoxy-phenyl)-N^4-cycloheptyl-N^6-methyl-N^6-piperidin-4-yl-1,3,5-triazine-2,4,6-triamine]
melting point: 114 to 116 °C

COc1ccc(Nc2nc(O)nc(NC3CCCCCC3)n2)cc1Cl [Compound 147, 4-(3-Chloro-4-methoxy-phenylamino)-6-cycloheptylamino-1,3,5-triazin-2-ol]
melting point: > 310 °C

COc1ccc(Nc2nc(NC3CCCCCC3)nc(OC3CCCN(C(C)=O)C3)n2)cc1Cl (stereo not drawn) [Compound E20, 1-[3-{4-(3-chloro-4-methoxyanilino)-6-cycloheptylamino-1,3,5-triazine-2-yloxy}piperidino]-1-ethanone]
melting point: 138 to 140 °C

COc1ccc(Nc2nc(NC3CCCCCC3)nc(OC(C)C)n2)cc1Cl [Compound E21, N^2-(3-chloro-4-methoxyphenyl)-N^4-cycloheptyl-6-isopropoxy-1,3,5-triazine-2,4-diamine]
melting point: 136 to 138 °C

COc1ccc(Nc2nc(NC3CCCCCC3)nc(OCC3CCCN3)n2)cc1Cl (stereo not drawn) [Compound E22, N^2-(3-chloro-4-methoxyphenyl)-N^4-cycloheptyl-6-(2-azolanylmethoxy)-1,3,5-triazine-2,4-diamine]
melting point: 84 to 86 °C

COc1ccc(Nc2nc(NC3CCCCCC3)nc(Oc3ccccc3F)n2)cc1Cl [Compound E28, N^2-(3-chloro-4-methoxyphenyl)-N^4-cycloheptyl-6-(2-fluorophenoxy)-1,3,5-triazine-4,2-diamine]
melting point: 98 to 100 °C
